Test [1] concerns the target T1, TLR7 (Homo sapiens, UniProt Q9NYK1).
T1 construct: lymphocytes, monocytes and dendritic cells that express TLR7, TLR8 and TLR9; endogenous in cells; host or cells: human PBMCs from healthy donors
T1 sequence (Q9NYK1 27-1049): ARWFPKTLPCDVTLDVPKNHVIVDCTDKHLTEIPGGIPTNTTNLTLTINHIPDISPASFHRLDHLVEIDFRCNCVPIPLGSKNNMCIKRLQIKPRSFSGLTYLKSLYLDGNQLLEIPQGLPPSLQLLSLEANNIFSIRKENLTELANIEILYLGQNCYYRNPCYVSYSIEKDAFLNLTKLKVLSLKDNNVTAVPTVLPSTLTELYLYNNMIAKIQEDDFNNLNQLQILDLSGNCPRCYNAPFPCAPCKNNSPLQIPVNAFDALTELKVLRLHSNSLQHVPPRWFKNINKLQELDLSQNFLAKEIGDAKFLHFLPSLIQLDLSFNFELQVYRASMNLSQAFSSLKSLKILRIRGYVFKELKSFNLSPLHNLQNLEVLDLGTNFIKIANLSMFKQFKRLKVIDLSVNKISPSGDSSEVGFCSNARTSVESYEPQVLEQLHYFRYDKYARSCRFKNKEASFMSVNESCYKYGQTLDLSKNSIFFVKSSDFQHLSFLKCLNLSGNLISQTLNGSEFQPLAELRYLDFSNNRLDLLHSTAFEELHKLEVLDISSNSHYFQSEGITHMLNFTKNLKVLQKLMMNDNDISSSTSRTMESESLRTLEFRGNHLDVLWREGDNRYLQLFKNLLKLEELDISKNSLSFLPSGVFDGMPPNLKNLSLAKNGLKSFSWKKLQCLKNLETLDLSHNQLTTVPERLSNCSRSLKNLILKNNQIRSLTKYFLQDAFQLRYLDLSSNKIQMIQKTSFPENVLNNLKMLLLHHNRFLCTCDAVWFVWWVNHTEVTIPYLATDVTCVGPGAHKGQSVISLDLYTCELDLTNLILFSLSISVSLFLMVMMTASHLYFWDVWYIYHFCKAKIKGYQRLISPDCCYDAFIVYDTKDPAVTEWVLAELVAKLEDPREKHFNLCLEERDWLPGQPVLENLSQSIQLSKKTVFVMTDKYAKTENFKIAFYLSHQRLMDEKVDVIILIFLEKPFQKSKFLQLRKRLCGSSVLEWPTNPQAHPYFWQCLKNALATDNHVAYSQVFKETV
The test can be described thus: Human PBMC cell-based assay, TLR7 agonist GS-986 stimulation, cytokine (IL-6 and IFNα) readout. The following applies: human PBMCs, GS-986 400 nM, 6 hours; Table 26; read-out: TLR-7 EC50. The method, boiled down:
(§1)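 Cryopreserved healthy-donor PBMCs (100,000 cells/well, RPMI-1640 + 10% FBS) preincubated 1 h at 37 °C with antagonist (10-point dose response), then stimulated 6 h with GS-986 (400 nM final, TLR7) or ODN-2216 (3 μM final, TLR9). Supernatant IL-6 and IFNα measured by electrochemiluminescence immunoassay; EC50 from sigmoidal fit.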

Test [2] has as its target T2, TLR9 (Homo sapiens, UniProt Q9NR96).
T2 construct: lymphocytes, monocytes and dendritic cells that express TLR7, TLR8 and TLR9; endogenous in cells; host or cells: human PBMCs from healthy donors
T2 sequence (Q9NR96 26-1032): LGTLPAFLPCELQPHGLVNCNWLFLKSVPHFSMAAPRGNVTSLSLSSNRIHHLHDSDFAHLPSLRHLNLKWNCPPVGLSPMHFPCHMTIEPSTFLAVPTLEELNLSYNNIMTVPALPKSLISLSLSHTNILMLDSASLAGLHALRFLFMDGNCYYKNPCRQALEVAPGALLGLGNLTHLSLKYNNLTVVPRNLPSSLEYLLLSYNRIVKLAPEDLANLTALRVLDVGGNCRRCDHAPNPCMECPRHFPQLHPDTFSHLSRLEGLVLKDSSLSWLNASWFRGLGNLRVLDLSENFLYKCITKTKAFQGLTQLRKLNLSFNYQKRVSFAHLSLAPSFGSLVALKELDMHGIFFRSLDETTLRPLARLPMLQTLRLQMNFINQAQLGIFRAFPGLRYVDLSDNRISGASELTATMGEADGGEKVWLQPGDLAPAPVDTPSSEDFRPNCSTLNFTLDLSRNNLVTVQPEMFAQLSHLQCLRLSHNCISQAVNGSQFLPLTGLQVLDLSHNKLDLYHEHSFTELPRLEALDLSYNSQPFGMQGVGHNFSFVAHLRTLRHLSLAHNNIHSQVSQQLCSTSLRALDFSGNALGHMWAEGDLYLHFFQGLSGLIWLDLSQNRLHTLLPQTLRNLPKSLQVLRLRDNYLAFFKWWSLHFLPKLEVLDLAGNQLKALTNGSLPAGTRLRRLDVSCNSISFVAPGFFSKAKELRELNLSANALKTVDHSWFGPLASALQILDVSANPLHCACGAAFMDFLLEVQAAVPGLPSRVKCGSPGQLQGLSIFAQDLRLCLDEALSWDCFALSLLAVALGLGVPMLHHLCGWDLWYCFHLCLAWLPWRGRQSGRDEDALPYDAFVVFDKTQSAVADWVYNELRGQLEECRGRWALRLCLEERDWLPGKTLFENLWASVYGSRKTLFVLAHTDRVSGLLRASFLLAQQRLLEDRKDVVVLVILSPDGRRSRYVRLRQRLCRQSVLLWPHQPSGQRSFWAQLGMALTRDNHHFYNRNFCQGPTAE
Description: Human PBMC cell-based assay, TLR9 agonist ODN-2216 stimulation, cytokine (IL-6 and IFNα) readout. To be noted: human PBMCs, ODN-2216 3 μM, 6 hours; Table 26; read-out: TLR-9 EC50. The method, boiled down:
as §1

For orientation: EC50 means the concentration needed to bring the measured effect to its halfway point. As for `Cc1cc(-c2[nH]c3cc(-c4ccc(N5CCN(C(=O)[C@@H]6CC(F)(F)CN6)CC5)nc4)ccc3c2C)cc(C)n1` [Example 138], the EC50 in test [1] turned out to be 415 nM; in test [2] it was 288 nM.

In the case of `Cc1cc(-c2[nH]c3cc(-c4ccc(N5CCN(C(=O)[C@@H]6CCNC6)CC5)nc4)ccc3c2C)cc(C)n1` [Example 139], the EC50 worked out at 93.5 nM in test [1] and 203 nM in test [2].

For the compound `Cc1cc(-c2[nH]c3cc(-c4ccc(N5CCN(C(=O)C67CNC(C6)C7)CC5)nc4)ccc3c2C)cc(C)n1` [Example 140], the EC50 worked out at 30.5 nM in test [1] and 42.3 nM in test [2].

`Cc1cc(-c2[nH]c3cc(-c4ccc(N5CCN(CC(F)F)CC5)nc4)ccc3c2C)cc(C)n1` [Example 141, 6-(6-(4-(2,2-difluoroethyl)piperazin-1-yl)pyridin-3-yl)-2-(2,6-dimethylpyridin-4-yl)-3-methyl-1H-indole]: the EC50 is > 1000 nM in test [1] and 120 nM in test [2].

On to `Cc1cc(-c2[nH]c3cc(-c4ccc(N5CCN(CC(F)(F)F)CC5)nc4)ccc3c2C)cc(C)n1` [Example 142], for which the EC50 was > 1000 nM in test [1] and 1370 nM in test [2].

`Cc1cc(-c2[nH]c3cc(-c4ccc(N5CCN(CCO)CC5)nc4)ccc3c2C2CC2)cc(C)n1` [Example 143]: the results for the EC50 in test [1] and in test [2] were 3.4 nM and 124 nM, respectively.

With `Cc1cc(-c2[nH]c3cc(-c4ccc(N5CCN6CC(F)(F)C[C@H]6C5)nc4)ccc3c2C)cc(C)n1` [Example 144], the EC50 was > 1000 nM in test [1] and 727 nM in test [2].

As to `Cc1cc(-c2[nH]c3cc(-c4ccc(C(=O)N5CCC(N)CC5)nc4)ccc3c2C)cc(C)n1` [Example 145, (4-aminopiperidin-1-yl)(5-(2-(2,6-dimethylpyridin-4-yl)-3-methyl-1H-indol-6-yl)pyridin-2-yl)methanone], the EC50 in test [1] amounted to 48.8 nM; in test [2], 277 nM.

Consider `Cc1cc(-c2[nH]c3cc(-c4csc(N5CCNCC5)n4)ccc3c2C)cc(C)n1` [Example 146, 4-[2-(2,6-dimethyl-4-pyridyl)-3-methyl-1H-indol-6-yl]-2-piperazin-1-yl-thiazole], for which the EC50 in test [1] stood at 119 nM; in test [2] it was 37.4 nM.

For `Cc1cc(-c2[nH]c3cc(-c4ccc5[nH]c(C6CCNCC6)nc5c4)ccc3c2C)cc(C)n1` [Example 147, 5-[2-(2,6-dimethyl-4-pyridyl)-3-methyl-1H-indol-6-yl]-2-(4-piperidyl)-1H-benzimidazole], the EC50 in test [1] was > 1000 nM; in test [2], 1350 nM.

On to `Cc1cc(-c2[nH]c3cc(-c4ccc5c(c4)ncn5C4CCNCC4)ccc3c2C)cc(C)n1` [Example 148, 5-[2-(2,6-dimethyl-4-pyridyl)-3-methyl-1H-indol-6-yl]-1-(4-piperidyl)benzimidazole], for which the EC50 in test [1] was found to be 11.8 nM; in test [2], 142 nM.

Turning to `Cc1cc(-c2[nH]c3cc(-c4ccc(N5CCNCC5)nc4)cnc3c2C)cc(C)n1` [Example 149, 2-(2,6-dimethyl-4-pyridyl)-3-methyl-6-(6-piperazin-1-yl-3-pyridyl)-1H-pyrrolo[3,2-b]pyridine], the EC50 was 1260 nM in test [1] and 188 nM in test [2].

Consider `Cc1cc(-c2[nH]c3nc(-c4ccc(N5CCNCC5)nc4)ccc3c2C)cc(C)n1` [Example 150], for which the EC50 is 760 nM in test [1] and 72.3 nM in test [2].

As for `Cc1cc(-c2[nH]c3cc(-c4ccc(N5CCNCC5)nc4)ncc3c2C)cc(C)n1` [Example 151], the values for the EC50 in test [1] and in test [2] were 867 nM and 537 nM, respectively.

In the case of `Cc1cc(-c2[nH]c3nc(C4CCNCC4)ccc3c2C)cc(C)n1` [Example 152, 2-(2,6-dimethyl-4-pyridyl)-3-methyl-6-(4-piperidyl)-1H-pyrrolo[2,3-b]pyridine], the EC50 is 1420 nM in test [1] and 178 nM in test [2].

Take `Cc1c(-c2cc(C)c3ncnn3c2)[nH]c2nc(C3CCNCC3)ccc12` [Example 153]: the EC50 amounted to 108 nM in test [1] and 1580 nM in test [2].

As to `Cc1cc(-c2[nH]c3cc(-c4ccc5nc([C@@H]6CCCNC6)[nH]c5c4)ccc3c2C)cc(C)n1` [Example 160], the EC50 in test [1] is 30.7 nM; in test [2], 566 nM.

Turning to `Cc1cc(-c2[nH]c3cc(-c4ccc(C5=CCCNC5)nc4)ccc3c2C)cc(C)n1` [Example 162], the figures for the EC50 in test [1] and in test [2] were 9.1 nM and 30 nM, respectively.

On to `Cc1cc(-c2[nH]c3cc(-c4ccc(C5CCN(CCO)CC5)nc4)ccc3c2C)cc(C)n1` [Example 163], for which the EC50 came out at 24.2 nM in test [1] and 47.1 nM in test [2].

`Cc1cc(-c2[nH]c3cc(-c4ccc5nc([C@H]6CCCCN6)[nH]c5c4)ccc3c2C)cc(C)n1` [Example 164]: the figures for the EC50 in test [1] and in test [2] were 22.8 nM and 49.1 nM, respectively.

Consider `Cc1cc(-c2[nH]c3cc(-c4ccc5ncn(C6CCNCC6)c5c4)ccc3c2C)cc(C)n1` [Example 166], for which the EC50 in test [1] turned out to be 144 nM; in test [2], 522 nM.

As for `Cc1cc(-c2[nH]c3cc(C(=O)NC4CCNCC4)ccc3c2C)cc(C)n1` [Example 178, 2-(2,6-dimethylpyridin-4-yl)-3-methyl-N-(piperidin-4-yl)-1H-indole-6-carboxamide], the EC50 is > 1000 nM in test [1] and 1880 nM in test [2].

For `Cc1cc(-c2[nH]c3cc(C(=O)N[C@H]4CCCNC4)ccc3c2C)cc(C)n1` [Example 179], the EC50 in test [1] is 334 nM; in test [2], 211 nM.

Regarding `Cc1cc(-c2[nH]c3cc(C(=O)N4CCC5(CCNCC5)CC4)ccc3c2C)cc(C)n1` [Example 180], the results for the EC50 in test [1] and in test [2] were > 1000 nM and 835 nM, respectively.

As for `Cc1cc(-c2[nH]c3cc(-c4cnc5c(c4)CCNC5)ccc3c2C)cc(C)n1` [Example 181, 3-[2-(2,6-dimethyl-4-pyridyl)-3-methyl-1H-indol-6-yl]-5,6,7,8-tetrahydro-1,7-naphthyridine], the values for the concentration for a half-maximal effect (EC50) in test [1] and in test [2] were 48.3 nM and 35.2 nM, respectively.

Regarding `Cc1cc(-c2[nH]c3cc(-c4ccc5c(n4)CCNC5)ccc3c2C)cc(C)n1` [Example 182], the EC50 is 59.6 nM in test [1] and 47.1 nM in test [2].

In the case of `Cc1cc(-c2[nH]c3cc(-c4cnn(CC5CCNCC5)c4)ccc3c2C)cc(C)n1` [Example 183], the EC50 in test [1] came to 323 nM; in test [2], 785 nM.

On to `Cc1cc(-c2[nH]c3cc(-c4cnn(C5CC6CCC(C5)N6)c4)ccc3c2C)cc(C)n1` (centres unmarked) [Example 184], for which the EC50 in test [1] was 16.9 nM; in test [2], 268 nM.

Values taken from patent US20250002471A1 (Gilead Sciences, Inc., priority 2020, published 2025).
